Data published in ChEMBL document CHEMBL1649380, “Prediction of drug intestinal absorption by new linear and non-linear QSPR” (Eur J Med Chem, 2011).

Assay: Drug absorption in human assessed as human intestinal absorption rate
Type: ADME, tissue-based, Intestine

| Molecule | log10(%HIA +10) |
| --- | --- |
| CC(C)C[C@H]1C(=O)N2CCC[C@H]2[C@]2(O)O[C@](NC(=O)[C@@H]3C=C4c5cccc6[nH]c(Br)c(c56)C[C@H]4N(C)C3)(C(C)C)C(=O)N12 [BROMOCRIPTINE] | 1.58 |
| GENTAMICIN | 1 |
| CN(Cc1cc(Br)cc(Br)c1N)C1CCCCC1 [BROMHEXINE] | 1.903 |
| O=P(O)(O)C(O)(Cc1cccnc1)P(=O)(O)O [RISEDRONIC ACID] | 1.041 |
| N=C(N)NC(=O)c1nc(Cl)c(N)nc1N [AMILORIDE] | 1.778 |
| CC[C@H](C)C(=O)O[C@H]1C[C@H](O)C=C2C=C[C@H](C)[C@H](CC[C@@H](O)C[C@@H](O)CC(=O)O)[C@H]21 [PRAVASTATIN] | 1.643 |
| CN1C[C@H](C(=O)N[C@]2(C)O[C@@]3(O)[C@@H]4CCCN4C(=O)[C@H](Cc4ccccc4)N3C2=O)C[C@@H]2c3cccc4[nH]cc(c34)C[C@H]21 [DIHYDROERGOTAMINE] | 1.653 |
| NC(=O)OCC(COC(N)=O)c1ccccc1 [FELBAMATE] | 2 |
| COc1ccc2c3c1O[C@H]1C(=O)CC[C@@]4(O)[C@@H](C2)N(C)CC[C@]314 [OXYCODONE] | 1.845 |
| C[C@H]1O[C@H](O[C@H]2[C@H](O)[C@@H](O)[C@@H](O[C@H]3[C@H](O)[C@@H](O)C(O)O[C@@H]3CO)O[C@@H]2CO)[C@H](O)[C@@H](O)[C@@H]1N[C@H]1C=C(CO)[C@@H](O)[C@H](O)[C@H]1O (stereo partly drawn) [ACARBOSE] | 1.079 |
| O=C1c2c(O)ccc(O)c2C(=O)c2c(NCCNCCO)ccc(NCCNCCO)c21 [MITOXANTRONE] | 1.176 |
| COCC(=O)O[C@]1(CCN(C)CCCc2nc3ccccc3[nH]2)CCc2cc(F)ccc2[C@@H]1C(C)C [MIBEFRADIL] | 1.898 |
| COc1cc(Cc2cnc(N)nc2N)cc(OC)c1OC [TRIMETHOPRIM] | 2.029 |
| Cc1c(N(C)C)c(=O)n(-c2ccccc2)n1C [AMINOPYRINE] | 2.041 |
| NC[C@@H]1O[C@H](O[C@H]2[C@@H](O)[C@H](O[C@@H]3[C@@H](O)[C@H](N)C[C@H](N)[C@H]3O[C@H]3O[C@H](CN)[C@@H](O)[C@H](O)[C@H]3N)O[C@@H]2CO)[C@H](N)[C@@H](O)[C@@H]1O [FRAMYCETIN] | 1.041 |
| CC1(C)S[C@@H]2[C@H](NC(=O)[C@H](N)c3ccc(O)cc3)C(=O)N2[C@H]1C(=O)O [AMOXICILLIN] | 2.016 |
| CCN(C)C(=O)Oc1cccc([C@H](C)N(C)C)c1 [RIVASTIGMINE] | 2.041 |
| CC(=O)Oc1ccccc1C(=O)O [ASPIRIN] | 2.041 |
